Data published in patent publication US6084072A, “Purified lectin and methods of use” (The Regents of the University of Michigan, priority 1993, dated 2000).
“Also recorded” adds a separate entry of the source.

What was measured:
[1] = biological target: amaranthin (Amaranthus caudatus, UniProt Q71QF2); assay: Hapten inhibition of amaranthin/asialo-ovine submaxillary mucin precipitation; type: binding; details: for Relative Inhibition potency ACA: N-Acetylgalactosamine = 1
Method: Precipitation assays were conducted in 1.5 ml centrifuge tubes by the method of So and Goldstein. Indicated amounts of glycoprotein were added to 80 μg of amaranthin, and the total volume was adjusted to 250 μl with phosphate buffered saline. The tubes were incubated at 37° C. and then kept at 4° C. for 2 days. The precipitates were centrifuged, washed with cold Phosphate buffered saline, dissolved in 0.05 N NaOH and analyzed for protein by the method of Lowery et al. using bovine serum albumin as the standard. Hapten inhibition assays were carried out using 80 μg of amaranthin, 5 μg of asialo-ovine submaxillary mucins, and the indicated sugar concentrations. Inhibition was determined relative to the amount of precipitate formed in the control with no sugar added. All precipitation assays were conducted in duplicate to bring the tolerance within ±5% and the amount of precipitate formed average.

[2] = biological target: T1, PNA (Arachis hypogaea, UniProt P02872); assay: Hapten inhibition of PNA/asialoglycophorin precipitation; type: binding; details: Galactose = 1; 40 μg PNA, 6 μg asialoglycophorin
T1 construct: purchased E.Y. Laboratories, San Mateo, Calif; (donated by Dr. A. Chu)
T1 sequence (P02872 24-273): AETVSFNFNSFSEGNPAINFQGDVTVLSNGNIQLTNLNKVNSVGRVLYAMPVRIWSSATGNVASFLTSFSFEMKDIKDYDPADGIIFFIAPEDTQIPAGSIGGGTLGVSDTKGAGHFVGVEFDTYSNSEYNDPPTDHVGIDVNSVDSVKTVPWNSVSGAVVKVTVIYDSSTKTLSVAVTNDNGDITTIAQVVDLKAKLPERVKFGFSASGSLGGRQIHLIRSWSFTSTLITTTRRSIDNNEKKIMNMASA
Method: Precipitation reactions with PNA were carried out similarly, except that 40 μg of PNA was used. Hapten inhibition studies with PNA used 40 μg of PNA, 6 μg of asialoglycophorin, and the indicated sugar concentrations.

Chain of amaranthin (Q71QF2 entry or part of it): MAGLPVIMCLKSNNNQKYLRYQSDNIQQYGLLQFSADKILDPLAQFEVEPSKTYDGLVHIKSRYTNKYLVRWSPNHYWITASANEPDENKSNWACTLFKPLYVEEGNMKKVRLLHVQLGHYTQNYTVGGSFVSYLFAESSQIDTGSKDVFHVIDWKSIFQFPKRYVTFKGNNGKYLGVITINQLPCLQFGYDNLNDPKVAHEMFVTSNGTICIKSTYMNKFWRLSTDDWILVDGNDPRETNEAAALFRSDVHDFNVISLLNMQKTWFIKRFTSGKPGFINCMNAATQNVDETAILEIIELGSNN

SMILES	IC50 [1] [µM]	Relative Inhibition potency ACA [1]	other results
COC(=O)[C@H](CO[C@H]1O[C@H](CO)[C@H](O)[C@H](O)[C@H]1NC(C)=O)NC(=O)OCc1ccccc1 [3-O-(2-N-acetyl-α-D-galactopyranosyl-N-(benzyloxcarbonyl)-L-serinemethyl ester]	53	15	–
CO[C@H]1[C@@H](O)[C@@H](CO)O[C@@H](O[C@H]2[C@@H](O)[C@@H](CO)O[C@H](OCc3ccccc3)[C@@H]2NC(C)=O)[C@@H]1O [3-O-Methyl Galβ1,3GalNAcα-O-benzyl]	2	395	Relative Inhibition potency PNA [2]: < 10
CC(=O)N[C@H]1[C@@H](OCc2ccccc2)O[C@H](CO)[C@H](O)[C@@H]1O[C@@H]1O[C@H](C)[C@H](O)[C@H](O)[C@H]1O [D-Fubcβ1,3GalNAcα-O-benzyl]	1.9	416	inhibition of amaranthin/AOSM precipitation, in words [1]: very good inhibitor; Relative Inhibition potency PNA [2]: 11
C[C@H]1OC(O)[C@H](O)[C@@H](O)[C@H]1O (stereo partly drawn) [D-Fucose]	–	< 0.002	–
CO[C@H]1O[C@H](CO)[C@H](O)[C@H](O[C@@H]2O[C@H](CO)[C@@H](O)[C@H](O)[C@H]2O)[C@H]1NC(C)=O [Gacβ1,3GalNAcα-O-CH3]	36	22	times less potent than Galβ1,3GalNAcα-O--CH3 ([1]; inhibitor of amaranthin): 10
CC(=O)N[C@H]1[C@@H](O[C@H]2[C@@H](O)[C@@H](CO)OC(O)[C@@H]2O)O[C@H](CO)[C@H](O)[C@@H]1O (stereo partly shown) [GalNAcα1,3Gal]	310	2.5	–
CC(=O)N[C@H]1[C@@H](OC[C@H]2OC(O)[C@H](O)[C@@H](O)[C@H]2O)O[C@H](CO)[C@H](O)[C@@H]1O (stereo partly shown) [GalNAcα1,6Gal]	210	3.8	–
CC(=O)N[C@H]1[C@H](OC[C@H]2OC(O)[C@H](O)[C@@H](O)[C@H]2O)O[C@H](CO)[C@H](O)[C@@H]1O (stereo partly shown) [GalNAcβ1,6Gal]	1000	0.8	–
N[C@H]1C(O)O[C@H](CO)[C@H](O)[C@@H]1O (stereo partly shown) [Galactosamine]	–	< 0.002	inhibition of amaranthin/AOSM precipitation, in words [1]: very poor inhibitors
OC[C@H]1OC(O)[C@H](O)[C@@H](O)[C@H]1O (stereo partly shown) [Galactose]	–	< 0.002	inhibition of amaranthin/AOSM precipitation, in words [1]: very poor inhibitors; also recorded: not by galactose
OC[C@H]1O[C@H](OC[C@H]2OC(O)[C@H](O)[C@@H](O)[C@@H]2O)[C@H](O)[C@@H](O)[C@H]1O (stereo partly shown) [Galα1,6Glc]	–	< 0.008	–
CC(=O)N[C@H]1CO[C@H](CO)[C@H](O)[C@@H]1O[C@@H]1O[C@H](CO)[C@H](O)[C@H](O)[C@H]1O [Galβ1,3(2-acetamido-2-deoxy-1,5-anhydrogalactitol)]	5.8	136	times less potent than Galβ1,3GalNAc ([1]; inhibitor of amaranthin): 1.7; Relative Inhibition potency PNA [2]: 14
CC(=O)N[C@H]1[C@@H](Oc2ccccc2[N+](=O)[O-])O[C@H](CO)[C@H](O)[C@@H]1O[C@@H]1O[C@H](CO)[C@H](O)[C@H](O)[C@H]1O [Galβ1,3GalNAcα-O-o-nitrophenyl]	2.1	376	–
C=CCO[C@@H]1O[C@H](CO)[C@H](O)[C@H](O[C@@H]2O[C@H](CO)[C@H](O)[C@H](O)[C@H]2O)[C@H]1NC(C)=O [Galβ1,3GalNAcβ-O-CH2 -CH = CH2]	34	23	–
CC(=O)N[C@H]1C(O)O[C@H](CO)[C@@H](O)[C@@H]1O[C@@H]1O[C@H](CO)[C@H](O)[C@H](O)[C@H]1O (stereo partly shown) [Galβ1,3GlcNAC]	–	< 0.08	inhibition of amaranthin/AOSM precipitation, in words [1]: very poor inhibitor
C=CCO[C@@H]1O[C@H](CO)[C@@H](O)[C@H](O[C@@H]2O[C@H](CO)[C@H](O)[C@H](O)[C@H]2O)[C@H]1NC(C)=O [Galβ1,3GlcNAcβ-O-CH2 --CH--CH2]	–	< 0.08	–
CC(=O)N[C@H]1[C@@H](OCc2ccccc2)O[C@H](CF)[C@H](O)[C@@H]1O[C@@H]1O[C@H](CO)[C@H](O)[C@H](O)[C@H]1O [Galβ1,3[6-F]GalNAcα-O-benzyl]	1.7	465	inhibition of amaranthin/AOSM precipitation, in words [1]: inhibition is equivalent to Galβ1,3GalNAca-O-benzyl
OC[C@H]1O[C@@H](O[C@H]2[C@H](O)[C@@H](O)C(O)O[C@@H]2CO)[C@H](O)[C@@H](O)[C@H]1O (stereo partly shown) [Galβ1,4Glc]	–	< 0.01	–
CC(=O)N[C@H]1[C@H](O[C@H]2[C@@H](O)[C@@H](CF)O[C@H](OCc3ccccc3)[C@@H]2NC(C)=O)O[C@H](CO)[C@@H](O)[C@@H]1O [GlcNAcβ1,3[6-F]GalNAcα-O-benzyl]	–	< 0.08	–
OC[C@H]1OC(O)[C@H](O)[C@@H](O)[C@@H]1O (stereo partly shown) [Glucose]	–	< 0.002	–
CO[C@H]1O[C@H](CO)[C@H](O)[C@H](O)[C@H]1NC(=O)c1ccccc1 [Methyl (2-N-benzamido)-α-galactosaminide]	850	0.9	–
CO[C@H]1O[C@H](CO)[C@H](O)[C@H](O)[C@H]1NC(=O)c1ccc([N+](=O)[O-])cc1 [Methyl (2-N-p-nitrobenzamindo)-α-galactosaminide]	140	5.6	–
CO[C@H]1O[C@H](CO)[C@H](O)[C@H](O)[C@H]1OC(C)=O [Methyl (2-O-acetyl)-α-galactoside]	2140	0.4	times less potent than GalNAcα-O--CH3 ([1]; inhibitor of amaranthin): 8.6
CO[C@H]1O[C@H](CO)[C@H](O)[C@H](O)[C@H]1OC(=O)c1ccc([N+](=O)[O-])cc1 [Methyl (2-O-p-nitrobenzoate)-α-galactoside]	–	< 0.1	–
CO[C@@H]1C[C@@H](O)[C@@H](O)[C@@H](CO)O1 [Methyl (2-deoxy)-α-galactose]	–	< 0.08	–
CO[C@H]1O[C@H](CO)[C@H](O)[C@H](O)[C@H]1NC(C)=O [Methyl N-acetyl-α-galactosaminide]	250	3.2	inhibition of amaranthin/AOSM precipitation, in words [1]: best monosaccharide inhibitor
CO[C@@H]1O[C@H](CO)[C@H](O)[C@H](O)[C@H]1NC(C)=O [Methyl N-acetyl-β-galactosaminide]	11300	0.07	–
COC(=O)CCCCCCCCO[C@H]1O[C@H](CO)[C@H](O)[C@H](O[C@@H]2O[C@H](CO)[C@H](O)[C@H](O[C@]3(C(=O)O)C[C@H](O)[C@@H](NC(C)=O)[C@H]([C@H](O)[C@H](O)CO)O3)[C@H]2O)[C@H]1NC(C)=O [NeuAcα2,3Galβ1,3GalNAcα-O-(CH2)8 --CO2 CH3]	1.8	439	inhibition of amaranthin/AOSM precipitation, in words [1]: does not decrease inhibitory potency
CC(=O)N[C@H]1[C@@H](Oc2ccc([N+](=O)[O-])cc2)O[C@H](CO)[C@H](O)[C@@H]1O [p-NitrophenylN-acetyl-α-galactosiminide]	450	1.8	–
CC(=O)N[C@H]1[C@H](Oc2ccc([N+](=O)[O-])cc2)O[C@H](CO)[C@H](O)[C@@H]1O [p-NitrophenylN-acetyl-β-Zgalactosaminide]	–	< 0.3	–
